Experimental data taken from ChEMBL document CHEMBL1201862, “PubChem BioAssay data set” (2004).
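Each compound was tested at five concentrations against cells in 96-well plates for 48 hours. At the GI50, growth is halved.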 Calls of active or inactive are those of the source. Rule as the data show it: active = GI50 up to about 1.1 µM and inactive = higher.

Tests used:
Experiment in all cases: NCI anticancer screen, dose series, 48 h
A498 = tested on: A498
A549 = tested on: A549
CCRF-CEM = tested on: CCRF-CEM
COLO 205 = tested on: COLO 205
DMS-114 = tested on: DMS-114
EKVX = tested on: EKVX
HL-60 = tested on: HL-60
HT-29 = tested on: HT-29
K562 = tested on: K562
KM12 = tested on: KM12
MOLT-4 = tested on: MOLT-4
NCI-H460 = tested on: NCI-H460
RPMI-8226 = tested on: RPMI-8226
SN12C = tested on: SN12C
SR = tested on: SR
U-251 = tested on: U-251
SK-OV-3 = tested on: SK-OV-3
SNB-75 = tested on: SNB-75

| SMILES | GI50 (A498) | GI50 (A549) | GI50 (CCRF-CEM) | GI50 (COLO 205) | GI50 (DMS-114) | GI50 (EKVX) | GI50 (HL-60) | GI50 (HT-29) | GI50 (K562) | GI50 (KM12) | GI50 (MOLT-4) | GI50 (NCI-H460) | GI50 (RPMI-8226) | GI50 (SN12C) | GI50 (SR) | GI50 (U-251) | GI50 (SK-OV-3) | GI50 (SNB-75) |
| --- | --- | --- | --- | --- | --- | --- | --- | --- | --- | --- | --- | --- | --- | --- | --- | --- | --- | --- |
| COC(=O)C(=O)C(/C(=N/N)C(=O)Nc1ccccc1C(N)=O)c1nc2ccc([N+](=O)[O-])cc2nc1O (configuration not stated) | 1.01 µM (active) | > 100 µM (inactive) | > 100 µM (inactive) | > 100 µM (inactive) | > 100 µM (inactive) | 18.4 µM (inactive) | > 100 µM (inactive) | > 100 µM (inactive) | > 100 µM (inactive) | > 100 µM (inactive) | > 100 µM (inactive) | > 100 µM (inactive) | > 100 µM (inactive) | > 100 µM (inactive) | > 100 µM (inactive) | > 100 µM (inactive) |  |  |
| CCCCNC1CCCCC[C@H]1O (some centres not stated) |  | > 100 µM (inactive) | > 100 µM (inactive) | > 100 µM (inactive) | > 100 µM (inactive) | > 100 µM (inactive) | > 100 µM (inactive) | > 100 µM (inactive) | > 100 µM (inactive) | > 100 µM (inactive) | > 100 µM (inactive) | > 100 µM (inactive) | > 100 µM (inactive) | > 100 µM (inactive) | > 100 µM (inactive) | > 100 µM (inactive) | > 100 µM (inactive) | > 100 µM (inactive) |
| CCCCCCCCCCCC[N+]12CC[N+](C)(CC1)CC2 |  | 54.7 µM (inactive) | 18.8 µM (inactive) | 5.28 µM (inactive) | 19.9 µM (inactive) | > 100 µM (inactive) | 16.4 µM (inactive) | 16.4 µM (inactive) | 23.8 µM (inactive) | 7.31 µM (inactive) | 27.9 µM (inactive) | 6.38 µM (inactive) | 15.8 µM (inactive) | 18.3 µM (inactive) | 6.18 µM (inactive) | 15.6 µM (inactive) | > 100 µM (inactive) | 13 µM (inactive) |
| CC(=O)c1c(C)[n+]([O-])c2cc(C)c(C)cc2[n+]1[O-] | > 100 µM (inactive) | > 100 µM (inactive) | > 100 µM (inactive) | > 100 µM (inactive) | > 100 µM (inactive) | > 100 µM (inactive) | > 100 µM (inactive) | 65.8 µM (inactive) | > 100 µM (inactive) | > 100 µM (inactive) | > 100 µM (inactive) | > 100 µM (inactive) | > 100 µM (inactive) | > 100 µM (inactive) |  | > 100 µM (inactive) | > 100 µM (inactive) | > 100 µM (inactive) |
| CC(C)NC(=O)OCc1nnn2c1C(OC(=O)NC(C)C)CC2 (configuration not stated) |  | > 100 µM (inactive) |  | > 100 µM (inactive) | > 100 µM (inactive) | > 100 µM (inactive) |  | > 100 µM (inactive) | > 100 µM (inactive) | > 100 µM (inactive) | > 100 µM (inactive) | > 100 µM (inactive) | > 100 µM (inactive) | > 100 µM (inactive) | > 100 µM (inactive) | > 100 µM (inactive) | > 100 µM (inactive) | > 100 µM (inactive) |
| O=C1OC2(OC2c2ccccc2)c2ccccc21 (configuration not stated) |  | > 100 µM (inactive) | > 100 µM (inactive) | > 100 µM (inactive) | 1.32 µM (inactive) | > 100 µM (inactive) | > 100 µM (inactive) | > 100 µM (inactive) | > 100 µM (inactive) | > 100 µM (inactive) | > 100 µM (inactive) | > 100 µM (inactive) | > 100 µM (inactive) | > 100 µM (inactive) | > 100 µM (inactive) | > 100 µM (inactive) | > 100 µM (inactive) | > 100 µM (inactive) |
| COc1ccc(C2C(Cl)C(=O)N2n2cnc3ccccc3c2=O)cc1 (configuration not stated) |  | > 100 µM (inactive) | > 10 µM (inactive) | 62.2 µM (inactive) | 72.8 µM (inactive) | 50.7 µM (inactive) | 59.2 µM (inactive) | > 100 µM (inactive) | 89.7 µM (inactive) | > 100 µM (inactive) | 51.3 µM (inactive) | 70.5 µM (inactive) | 33.4 µM (inactive) | > 100 µM (inactive) | 33 µM (inactive) | > 100 µM (inactive) | > 100 µM (inactive) | 29.4 µM (inactive) |
| S=c1[nH]c(=S)c2nnn(-c3ccccc3)c2[nH]1 |  | > 100 µM (inactive) | > 100 µM (inactive) | > 100 µM (inactive) | 5.97 µM (inactive) | > 100 µM (inactive) | > 100 µM (inactive) | > 100 µM (inactive) | > 100 µM (inactive) | > 100 µM (inactive) | > 100 µM (inactive) | > 100 µM (inactive) | > 100 µM (inactive) | > 100 µM (inactive) | > 100 µM (inactive) | > 100 µM (inactive) | > 100 µM (inactive) | > 100 µM (inactive) |
| COc1ccc(OC)c(CCc2cc(OC)c(OC)cc2C)c1 | > 100 µM (inactive) | 29.3 µM (inactive) | 11 µM (inactive) | 33.4 µM (inactive) | 5.65 µM (inactive) | 84.9 µM (inactive) |  | 28.4 µM (inactive) | 3.64 µM (inactive) | 0.63 µM (active) | 12.1 µM (inactive) | 34.2 µM (inactive) | 14.4 µM (inactive) | 81.3 µM (inactive) |  | 43.4 µM (inactive) | 23 µM (inactive) | 16.8 µM (inactive) |
| COc1ccccc1C1C(C(=O)Nc2ccccc2)=C(C)NC(C)=C1C(=O)Nc1ccccc1 | 31.7 µM (inactive) |  |  | 24.5 µM (inactive) | 41.8 µM (inactive) | 91.4 µM (inactive) |  | 83.4 µM (inactive) | 44.8 µM (inactive) | 28.2 µM (inactive) | 7.45 µM (inactive) | 44 µM (inactive) | 19.5 µM (inactive) | > 100 µM (inactive) |  | 90.8 µM (inactive) | > 100 µM (inactive) | > 100 µM (inactive) |
| CCc1cccc(C)c1NC(=O)C1=C(C)NC(C)=C(C(=O)Nc2c(C)cccc2CC)C1c1ccc2c(c1)OCO2 | 11.3 µM (inactive) | 16.9 µM (inactive) | 18.8 µM (inactive) | 18.5 µM (inactive) | 16.2 µM (inactive) | 20.5 µM (inactive) | 21.4 µM (inactive) | 20.8 µM (inactive) | 27.2 µM (inactive) | 16.4 µM (inactive) | 21.2 µM (inactive) | 16.1 µM (inactive) | 16.8 µM (inactive) | 19.2 µM (inactive) |  | 15.2 µM (inactive) | 48.9 µM (inactive) | 9.84 µM (inactive) |
| COc1ccc(C2=Nc3ccccc3SC(C)C2)cc1 (configuration not stated) | > 100 µM (inactive) | > 100 µM (inactive) | 33.4 µM (inactive) | > 100 µM (inactive) | 73.3 µM (inactive) | > 100 µM (inactive) | 46 µM (inactive) | 62.1 µM (inactive) | 24.4 µM (inactive) | 32.2 µM (inactive) | 49.8 µM (inactive) | > 100 µM (inactive) | 17.3 µM (inactive) | > 100 µM (inactive) |  | 92.7 µM (inactive) | > 100 µM (inactive) | > 100 µM (inactive) |
